In PubChem BioAssay AID179 (DTP/NCI, 2004):
Values joined by “and” are separate entries in the source; they are usually repeats but may differ in a detail not shown here. Equal entries are not always repeated. Active and inactive are the calls of the source.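 The calls were made as follows: active = compounds giving half or more protection of infected cells from virus-caused growth loss, again on retest; inactive = the rest.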

Test system: CEM cells HIV-1 protection, formazan growth assay
Assay: NCI AIDS Antiviral Assay
Details: for IC50: measured here: growth of uninfected CEM cells
How it was run: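 Soluble formazan readout of cell growth; CEM cells ± HIV-1; 5 drug concs. ≥50% protection → retest; ≥50% again = moderately active; reproducible 100% = confirmed active.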

Compound	outcome	EC50	IC50
COc1ccc(C(=O)/C=C/c2ccc(OCC(=O)N3CCN(c4ccccc4)CC3)cc2)cc1OC	inactive	–	–
COc1c(O)c2c(=O)cc(OC)c3c4c(OC)cc(=O)c5c(O)c(OC)c(C[C@H](C)O)c(c(c1CC(C)O)c23)c54 (stereo partly drawn)	inactive	–	–
C=CCCCCCCCCC(=O)NCc1nc2ccccc2[nH]1	–	> 200 µM	29.5 µM
O=C(O)c1ccc(-n2[se]c3ccccc3c2=O)cc1	–	7.24 µM	20.4 µM
Cc1cc(N=O)ccc1O	–	> 200 µM	3.63 µM
S=C1SC(=Nc2ccccc2)C(=Nc2ccccc2)N1c1ccccc1	–	> 200 µM	91.2 µM
CN(C)c1cc[n+](-c2nc(/N=C(\[O-])C(F)(F)F)nc3c2ncn3C2CC(O)C(CO)O2)cc1 (stereo not drawn)	–	> 200 µM	> 200 µM
CC(=O)OCC1OC(SC2=N/C(=C\c3cc4c(=O)c5ccccc5sc4s3)C(=O)N2c2ccccc2)C(OC(C)=O)C(OC(C)=O)C1OC(C)=O (stereo not drawn)	–	> 200 µM	115 µM
CCN(CC)S(=O)(=O)c1ccc([O-])c(C(=O)[O-])c1.[Cu+2].[OH3+]	–	> 200 µM	28.2 µM
O=C1C(Cl)N(c2ccc([N+](=O)[O-])cc2)C1c1c[nH]c2ccccc12 (stereo not drawn)	–	> 145 µM	18.2 µM
Oc1cc(O)cc(/C=C/c2ccc(O)c(O)c2)c1	inactive	–	–
Cc1cc(NC(=O)c2ccc(NC(=O)c3ccccc3)cc2)ccc1N=Nc1ccc(N=Nc2ccc3c(O)cc(S(=O)(=O)O)cc3c2)c2cc(S(=O)(=O)O)ccc12	–	6.17 µM	50.1 µM
C=CCNC(=O)N1CC(C)C(=O)Nc2ccccc21 (stereo not drawn)	–	> 200 µM	> 200 µM
C(=C/c1nc2ccccc2o1)/c1ccc2c(c1)OCO2	–	> 10.2 µM	> 10.2 µM
COC(=O)C1=C(C(=O)OC)C2(c3ccccc3)OC1(c1ccccc1)c1cc3ccccc3cc12	inactive	–	–
CC(=O)OCC1OC(SC2OC(COC(C)=O)C(OC(C)=O)C(OC(C)=O)C2OC(C)=O)C(OC(C)=O)C(OC(C)=O)C1OC(C)=O (stereo not drawn)	–	97.7 µM	> 200 µM
CON[C@@H]1C[C@H](n2cc(C)c(=O)[nH]c2=O)O[C@@H]1CO[Si](C)(C)C(C)(C)C	–	> 200 µM	107 µM
[N-]=[N+]=Nc1c(Cc2ccccc2)c(Cl)nc2ccccc12	–	> 200 µM	19.1 µM
CC[C@H]1CN2CCc3c([nH]c4ccccc34)C2C[C@@H]1CCO (stereo partly drawn)	–	> 120 µM	> 120 µM
O=C1C(c2ccccc2)=C(c2ccccc2)[C@H](c2ccccc2)[C@]1(Cc1nnn(-c2ccc([N+](=O)[O-])cc2)c1N1CCOCC1)c1ccccc1	inactive	–	–
Clc1ccc(-n2cccc2)cc1	–	> 200 µM	> 200 µM
Nc1c2c([nH]c(=O)c1N=O)CCC2	–	> 200 µM	> 200 µM
COc1ccc(-c2c(C#N)c(N)n(C3OC(CO)C(O)C(O)C3O)c(=S)c2C#N)cc1 (stereo not drawn)	–	> 200 µM	95.5 µM and 129 µM

Compound	outcome	EC50	IC50
COC(=O)CCC(=O)NC1C2CC3CC(C2)CC1C3 (stereo not drawn)	–	> 135 µM	> 135 µM
N#CC1(c2nc3ccccc3o2)C(=O)C(=O)N(c2ccc(Cl)c(Cl)c2)C(=O)C1=O	–	> 302 µM	282 µM
CN(C)c1ccc(/C=C(\C#N)c2ccc(Br)cc2Br)cc1	–	> 200 µM	3.39 µM
CC1(C)COC(Cc2ccccc2)=N1	–	> 200 µM	> 200 µM
CSc1nc2c(nc(N)n2C2OCC(O)C(O)C2O)c(=O)n1C (stereo not drawn)	inactive	–	–
O=C(O)c1ccccc1-c1c2ccc(=O)c(I)c-2oc2c(I)c(O)ccc12	–	> 316 µM	19.1 µM
Cc1c2c(C#N)nccc2c(C)c2c1c1ccccc1n2Cc1ccccc1	inactive	–	–
Cn1c(-c2cccs2)cc(-c2ccsc2)c1-c1cccs1	inactive	–	–
C/C(CC(=O)Nc1cccc([N+](=O)[O-])c1)=N/NC(N)=S	–	> 447 µM	> 447 µM
CC(C)N(/C(F)=N\C(=O)Nc1ccccc1C(F)(F)F)C(C)C	–	> 200 µM	38.9 µM
Clc1cc2nncc(N3CC3)c2cc1Cl	inactive	–	–
N#CC(c1ccccc1)N(CCCCCCN(C(=O)c1ccccc1)C(C#N)c1ccccc1)C(=O)c1ccccc1 (stereo not drawn)	–	> 200 µM	61.7 µM
N/N=C(\N)c1ccc(NC(=O)c2ccc(C(=O)Nc3ccc(/C(N)=N/N)cc3)cc2)cc1	–	> 200 µM	93.3 µM
CCCNC(=O)Cn1c(C)cc2ccccc21	–	> 200 µM	> 200 µM
COc1cccc(OC)c1SSCCN	–	> 200 µM	24.5 µM
Cn1c2ccccc2c(=O)c2c(O)cc3c(c21)N=CC(C)(C)O3	inactive	–	–
O=C1C(CN2CCOCC2)CCCC1CN1CCOCC1 (stereo not drawn)	inactive	> 4270 µM	1.35 µM
NC(=O)CCNC(=O)c1ccccc1SC(=O)OCCBr	–	6.31 µM	> 200 µM
O=C(O)c1ccccc1Sc1ccccc1[N+](=O)[O-]	inactive	–	–
C=C1C(OC)O[C@@H]2O[C@@]3(C)CC[C@H]4[C@H](C)CC[C@@H]1[C@@]24O3 (stereo partly drawn)	–	> 200 µM	> 200 µM
O=C(OC1C(OC(=O)c2cccnc2)C(OC(=O)c2cccnc2)C(OC(=O)c2cccnc2)C(OC(=O)c2cccnc2)C1OC(=O)c1cccnc1)c1cccnc1 (stereo not drawn)	–	> 200 µM	> 200 µM
CCOc1ccccc1NC(=O)CC1C(=O)Nc2ccccc2S1=O (stereo not drawn)	–	> 38 µM	> 38 µM
O=C1CCC2(O1)c1ccc(O)cc1Oc1cc(O)ccc12	–	> 200 µM	> 200 µM

Compound	outcome	EC50	IC50
O=C(CCC(=O)Nc1ccc(Cl)c(Cl)c1)CC(=O)c1ccc(Br)cc1	–	> 282 µM	> 282 µM
CCN(CC)CCOc1ccc2c(c1O)C(=O)c1ccccc1C2=O	–	> 74.1 µM	3.98 µM
Nc1ccc(C(=O)NN2C(=O)C(Cl)C2c2ccc(O)cc2)cc1 (stereo not drawn)	–	> 200 µM	9.12 µM
CN(c1ccccc1)S(=O)(=O)c1cccc([N+](=O)[O-])c1	–	50.1 µM	105 µM
[Se]=P(c1ccccc1)(c1ccccc1)c1ccc(C(c2ccccc2)=P(c2ccccc2)(c2ccccc2)c2ccccc2)cc1	–	> 10 µM	1 µM
S=C1NC(/C=C/c2ccccc2)N2C(=S)NC(/C=C\c3ccccc3)N12 (stereo not drawn)	inactive	–	–
Oc1ccc(C=NCC2CCCN3CCCCC23)cc1 (stereo not drawn)	–	> 200 µM	33.1 µM
Cc1ccc(N2C(=O)N(c3ccc(C)cc3)C3(SC=NN3C)C2=O)cc1 (stereo not drawn)	inactive	–	–
CC(=O)Nc1ccc(/C=C2/NC(=S)N(/C=C3\C(=O)Oc4ccccc4C3=O)C2=O)cc1	–	> 200 µM	155 µM
N.N.N.N.N.[Co+3].[I-].[N-]=[N+]=[N-]	inactive	–	–
CCN(CC)CC(=O)Nc1ccccc1C	–	> 100 µM	> 100 µM
CC(NC1=NCCO1)c1cccs1 (stereo not drawn)	–	> 200 µM	138 µM
O=c1c2c3ccccc3[nH]c2c2cccc3c2n1CCC3	–	> 200 µM	61.7 µM
O=C(CCc1ccccc1CO)NCCc1ccccc1	–	> 200 µM	> 200 µM
CCCC(=O)OC1C(C2COC(C)(C)O2)OC2OC(C)(C)OC21 (stereo not drawn)	inactive	–	–
COc1cc2ccc(/C(C)=N/OC(C)=O)cc2cc1OC	inactive	–	–
COC(=O)c1cc2cnc1CSCc1cnc(c(C(=O)OC)c1)CSC2	–	> 200 µM	> 200 µM
CCN(CC)CCOc1ccc(/C(=C(\Cl)c2ccccc2)c2ccccc2)cc1	–	> 200 µM	5.5 µM
O=S(=O)(O)CCO	–	> 200 µM	> 200 µM
Clc1ccc(SCCCCCCCCCCSc2ccc(Cl)cc2)cc1	–	> 23.4 µM	> 23.4 µM
COc1ccc2cc(Oc3ccc(Cl)cc3)c(=O)oc2c1	–	> 200 µM	> 200 µM
OC1(c2ccccc2)CC2CCC(C1)N2CCCC1(c2ccc(F)cc2)OCCO1 (stereo not drawn)	–	> 200 µM	162 µM
O=C(CC(C(=O)c1cccs1)c1ccsc1)c1cccs1 (stereo not drawn)	–	> 200 µM	40.7 µM

Compound	outcome	EC50	IC50
COc1ccc(C(=O)/C=C/c2ccc(OCC(=O)N3CCN(c4ccccc4)CC3)cc2)cc1	–	> 29.5 µM	> 29.5 µM
CC(C)(C)N1C(=O)N=[N+](/C(=C(\c2ccccc2)n2nc([O-])n(C(C)(C)C)c2=O)c2ccccc2)C1=O	–	> 100 µM	> 100 µM
CCOC(=O)c1c(SC(=O)c2cc(OC)c(OC)c(OC)c2)n(-c2ccccc2)c(=S)n(-c2ccccc2)c1=O	–	> 200 µM	32.4 µM
CC(C)OC1NC(=O)Oc2ccccc21 (stereo not drawn)	–	> 200 µM	132 µM
C1=CC2/C=C\c3[nH]c4ccccc4c3CCN(C1)C2 (stereo not drawn)	–	> 162 µM	75.9 µM
O=C1SCC(O)=C1/C=N/Nc1nc2ccccc2o1	–	> 50.1 µM	2.63 µM
COc1cc2c(cc1OC)C(CCc1ccc(Cl)cc1)N(C)CC2 (stereo not drawn)	–	> 200 µM	91.2 µM
c1cc(N(CCn2cccn2)CCn2cccn2)cc(N(CCn2cccn2)CCn2cccn2)c1	inactive	–	–
COc1cc(/C=C(\C#N)c2ccc(Cl)cc2)ccc1OCc1ccccc1	–	> 200 µM	> 200 µM
CN=C(NC#N)N(Cc1ccccc1)Cc1ccccc1	–	> 129 µM	> 100 µM
Cc1cc(C)c(C#N)c(SC(=S)NC(=O)c2ccccc2)n1	–	158 µM	> 200 µM
Oc1cc(Br)cc2cc(Br)cnc12	inactive	–	–
CC1=C(C(=O)NCc2ccccc2)C(c2ccccc2O)C(C(=O)NCc2ccccc2)=C(C)N1	–	> 200 µM	33.9 µM
O=[N+]([O-])c1ccc2nc(Nc3ccccc3)c(Nc3ccccc3)nc2c1	inactive	–	–
COc1ccc(-n2cnc3c(NCC(=O)O)ncnc32)cc1	–	> 200 µM	> 200 µM
COC(=O)[C@@H]1[C@H]2CC[C@]3(C)[C@@H](OC(C)=O)CC[C@H]3[C@@H]2CC[C@H]1C(C)=O	–	> 174 µM	> 174 µM
O=C1C2=C(c3ccccc31)C(c1ccc(F)cc1)N1C(=O)CCSC1=N2 (stereo not drawn)	–	> 37.2 µM	> 37.2 µM
CCn1c(=O)c(N=O)c(N)n(C2CC2)c1=O	–	> 200 µM	> 200 µM
CN(C)C(=S)/N=c1\ssc(=S)n1Cc1ccco1	inactive	–	–
CC(=O)OCC(=O)[C@@]1(O)CC[C@H]2[C@@H]3CCC4=CC(=O)C=C[C@]4(C)[C@@]3(F)[C@@H](O)C[C@@]21C	inactive	–	–
